13 molecules from PubChem BioAssay AID216 (DTP/NCI, 2004) can be followed below.

“And” between values parts separate entries of the source, which are not always exact repeats. Equal values may be shown once. Toxic doses and inconclusive results are not listed.

For this assay, the system named is BDF1 mice, P288 leukemia ip, survival T/C. The assay is described as follows: NCI In Vivo Anticancer Drug Screen. Data for tumor model P288 Lymphocytic Leukemia (intraperitoneal) in B6D2F1 (BDF1) mice. Particulars: endpoint: survival time, mean or median, higher = longer survival. The procedure:
The antitumor activity of compounds was measured in mice bearing transplantable tumors. Survival or tumor size were measured and the results are expressed as the measurement made in the treated group (T) divided by the measurement made in the vehicle treated control group (C). The tumor model used in this assay is P288 Lymphocytic Leukemia (intraperitoneal) in B6D2F1 (BDF1) mice

Setting [1] is: dose: 125.0 mg/kg/injection, schedule: Q01DX Z (ip), vehicle: carboxymethylcellulose (CMC).
The mark [2] stands for this setting: dose: 250.0 mg/kg/injection, schedule: Q01DX010 (ip), vehicle: saline.
[3] abbreviates: dose: 10.0 mg/kg/injection, schedule: Q01DX010 (ip), vehicle: saline.
The mark [4] stands for this setting: dose: 20.0 mg/kg/injection, schedule: Q01DX010 (ip), vehicle: saline.
Setting [5] is: dose: 0.12 mg/kg/injection, schedule: Q01DX Z (ip), vehicle: saline.

On to `C[C@]12CCC(=O)C=C1CC[C@@H]1[C@@H]2CC[C@@]2(C)[C@H]1CC[C@]2(C)O`, for which the T/C (dose: 16.0 mg/kg/injection, schedule: Q01DX Z (sc), vehicle: steriod suspending solution) was 104 % of control; the T/C (dose: 31.0 mg/kg/injection, schedule: Q01DX Z (sc), vehicle: steriod suspending solution) is 108 % of control; the T/C (dose: 62.5 mg/kg/injection, schedule: Q01DX Z (sc), vehicle: steriod suspending solution) is 110 % of control and 116 % of control; the T/C (dose: 125.0 mg/kg/injection, schedule: Q01DX Z (sc), vehicle: steriod suspending solution) was 100 % of control; the T/C (dose: 250.0 mg/kg/injection, schedule: Q01DX Z (sc), vehicle: steriod suspending solution) is 100 % of control; the T/C (dose: 500.0 mg/kg/injection, schedule: Q01DX Z (sc), vehicle: steriod suspending solution) was 101 % of control.

For the molecule `O=CCC(O)C(O)C(O)CO` (stereo not drawn), the T/C is, setting by setting: (dose: 16.0 mg/kg/injection, schedule: Q01DX Z (ip), vehicle: carboxymethylcellulose (CMC)) 120 % of control; (dose: 62.5 mg/kg/injection, schedule: Q01DX Z (ip), vehicle: carboxymethylcellulose (CMC)) 113 % of control; under setting [1], 120 % of control; under setting [2], 90 % of control and 100 % of control; (dose: 500.0 mg/kg/injection, schedule: Q01DX010 (ip), vehicle: saline) 100 % of control.

As to `CSc1ncnc2c1ncn2C1OC(CO)C(O)C1O` (stereo not drawn), the T/C was 101 % of control (dose: 3.1 mg/kg/injection, schedule: Q01DX Z (ip), vehicle: carboxymethylcellulose (CMC)); 124 % of control (dose: 6.3 mg/kg/injection, schedule: Q01DX Z (ip), vehicle: carboxymethylcellulose (CMC)); 118 % of control (dose: 12.5 mg/kg/injection, schedule: Q01DX Z (ip), vehicle: carboxymethylcellulose (CMC)).

In the case of `CS(=O)(=O)OCC(O)C(O)C(O)C(O)COS(C)(=O)=O` (stereo not drawn), the T/C was 100 % of control (dose: 25.0 mg/kg/injection, schedule: Q01DX010 (ip), vehicle: saline); 114 % of control and 94 % of control (dose: 50.0 mg/kg/injection, schedule: Q01DX010 (ip), vehicle: saline); 111 % of control and 100 % of control (dose: 100.0 mg/kg/injection, schedule: Q01DX010 (ip), vehicle: saline); 105 % of control and 100 % of control (dose: 200.0 mg/kg/injection, schedule: Q01DX010 (ip), vehicle: saline); 114 % of control (dose: 400.0 mg/kg/injection, schedule: Q01DX010 (ip), vehicle: saline).

With `Nc1nc(SCc2ccccc2)c2[nH]cnc2n1`, the T/C is 108 % of control (dose: 2.5 mg/kg/injection, schedule: Q01DX Z (ip), vehicle: carboxymethylcellulose (CMC)); 113 % of control (dose: 4.95 mg/kg/injection, schedule: Q01DX Z (ip), vehicle: carboxymethylcellulose (CMC)); 94 % of control (dose: 8.0 mg/kg/injection, schedule: Q01DX010 (ip), vehicle: saline); 91 % of control (dose: 9.9 mg/kg/injection, schedule: Q01DX Z (ip), vehicle: carboxymethylcellulose (CMC)); 88 % of control (dose: 16.0 mg/kg/injection, schedule: Q01DX010 (ip), vehicle: saline); 88 % of control (dose: 18.75 mg/kg/injection, schedule: Q01DX Z (ip), vehicle: carboxymethylcellulose (CMC)). For the same molecule, the T/C runs as follows: (dose: 18.8 mg/kg/injection, schedule: Q01DX Z (ip), vehicle: carboxymethylcellulose (CMC)) 113 % of control; (dose: 32.0 mg/kg/injection, schedule: Q01DX010 (ip), vehicle: saline) 100 % of control; (dose: 64.0 mg/kg/injection, schedule: Q01DX010 (ip), vehicle: saline) 122 % of control; (dose: 128.0 mg/kg/injection, schedule: Q01DX010 (ip), vehicle: saline) 110 % of control.

Consider `O=c1[nH]cc(F)c(=O)[nH]1`, for which the T/C was 115 % of control and 118 % of control and 100 % of control (dose: 5.0 mg/kg/injection, schedule: Q01DX010 (ip), vehicle: saline); 122 % of control under setting [3]; 155 % of control and 190 % of control and 193 % of control under setting [4].

`O=C(Nc1ccc(C2=NCCN2)cc1)c1ccc(C(=O)Nc2ccc(C3=NCCN3)cc2)c(Cl)c1`: the T/C was 108 % of control and 120 % of control (dose: 2.0 mg/kg/injection, schedule: Q01DX010 (ip), vehicle: other); 107 % of control (dose: 7.5 mg/kg/injection, schedule: Q01DX Z (ip), vehicle: water); 160 % of control and 183 % of control (dose: 8.0 mg/kg/injection, schedule: Q01DX010 (ip), vehicle: other); 232 % of control and 262 % of control (dose: 16.0 mg/kg/injection, schedule: Q01DX010 (ip), vehicle: other); 154 % of control (dose: 30.0 mg/kg/injection, schedule: Q01DX Z (ip), vehicle: water); 120 % of control and 296 % of control (dose: 32.0 mg/kg/injection, schedule: Q01DX010 (ip), vehicle: other).

Turning to `CSCS(=O)C[C@H](CO)NC(=O)/C=C/c1c(C)[nH]c(=O)[nH]c1=O` (stereo partly drawn), the T/C is, setting by setting: (dose: 0.06 mg/kg/injection, schedule: Q01DX Z (ip), vehicle: saline) 102 % of control; under setting [5], 96 % of control; (dose: 0.25 mg/kg/injection, schedule: Q01DX Z (ip), vehicle: saline) 107 % of control and 96 % of control; (dose: 0.5 mg/kg/injection, schedule: Q01DX Z (ip), vehicle: saline) 90 % of control and 96 % of control; (dose: 1.0 mg/kg/injection, schedule: Q01DX Z (ip), vehicle: saline) 97 % of control.

`CCN(CCNc1ccc(C)c2sc3cc(Cl)ccc3c(=O)c12)CC(C)O` (stereo not drawn): the T/C is, setting by setting: (dose: 31.3 mg/kg/injection, schedule: Q01DX010 (ip), vehicle: saline) 112 % of control; (dose: 62.5 mg/kg/injection, schedule: Q01DX010 (ip), vehicle: saline) 94 % of control; (dose: 125.0 mg/kg/injection, schedule: Q01DX010 (ip), vehicle: saline) 105 % of control; under setting [2], 118 % of control and 94 % of control.

Take `C[C@@H]1C[C@H]2CC[C@H](O2)[C@H](C)C(=O)O[C@@H](C)C[C@@H]2CC[C@@H](O2)[C@@H](C)C(=O)O[C@H](C)C[C@H]2CC[C@H](O2)[C@H](C)C(=O)O[C@@H](C)C[C@@H]2CC[C@@H](O2)[C@@H](C)C(=O)O1`: the T/C runs as follows: (dose: 25.0 mg/kg/injection, schedule: Q01DX Z (ip), vehicle: carboxymethylcellulose (CMC)) 98 % of control; (dose: 50.0 mg/kg/injection, schedule: Q01DX Z (ip), vehicle: carboxymethylcellulose (CMC)) 96 % of control; (dose: 100.0 mg/kg/injection, schedule: Q01DX Z (ip), vehicle: carboxymethylcellulose (CMC)) 120 % of control; (dose: 200.0 mg/kg/injection, schedule: Q01DX Z (ip), vehicle: carboxymethylcellulose (CMC)) 111 % of control.

For the molecule `O=c1cn[nH]c(=O)[nH]1`, the T/C was 113 % of control (dose: 5.0 mg/kg/injection, schedule: Q01DX Z (ip), vehicle: carboxymethylcellulose (CMC)); 101 % of control (dose: 10.0 mg/kg/injection, schedule: Q01DX Z (ip), vehicle: carboxymethylcellulose (CMC)); 113 % of control (dose: 20.0 mg/kg/injection, schedule: Q01DX Z (ip), vehicle: carboxymethylcellulose (CMC)); 104 % of control under setting [1]; 108 % of control and 93 % of control (dose: 250.0 mg/kg/injection, schedule: Q01DX Z (ip), vehicle: carboxymethylcellulose (CMC)); 106 % of control (dose: 500.0 mg/kg/injection, schedule: Q01DX Z (ip), vehicle: carboxymethylcellulose (CMC)). For the same molecule, where the note is “dose: 1000.0 mg/kg/injection, schedule: Q01DX Z (ip), vehicle: carboxymethylcellulose (CMC)”, the T/C was 118 % of control.

As for `COc1cc(-c2ccc(Nc3ccccc3C(=O)O)c(OC)c2)ccc1N`, the T/C was 94 % of control under setting [3]; 114 % of control and 100 % of control under setting [4]; 200 % of control (dose: 40.0 mg/kg/injection, schedule: Q01DX010 (ip), vehicle: saline); 200 % of control and 228 % of control (dose: 80.0 mg/kg/injection, schedule: Q01DX010 (ip), vehicle: saline).

As to `COc1cc2c(c(OC)c1OC)-c1ccc(OC)c(=O)cc1[C@@H](NC(C)=O)CC2`, the T/C under setting [5] is 109 % of control.
